For one compound, PR CDV EC90 results are on record in US20050238655A1, “Antiviral activity from medicinal mushrooms” (priority 2004, published 2005).

In one assay the test system is Vaccinia. The class given is cell-based.
The subject of a further assay is Cowpox. The class given is cell-based.

In the case of `Nc1ccn(C[C@@H](CO)OCP(=O)(O)O)c(=O)n1` [CDV], the PR CDV EC90 in the assay with Vaccinia turned out to be 17 µg/mL; in the assay on Cowpox, 18.1 µg/mL.
